Assay results taken from ChEMBL document CHEMBL1132291, “Synthesis and serotonergic activity of substituted 2, N-benzylcarboxamido-5-(2-ethyl-1-dioxoimidazolidinyl)-N, N-dimethyltryptamine derivatives: novel antagonists for the vascular 5-HT(1B)-like receptor” (J Med Chem, 1999).

How the values were obtained:
[1] = test system: Adrenergic receptor alpha-1 (Oryctolagus cuniculus); experiment: Alpha-1 adrenergic receptor affinity using ring preparations of rabbit thoracic aorta (RbTA).
[2] = test system: 5-hydroxytryptamine receptor 1B (Oryctolagus cuniculus); experiment: Binding affinity against vascular 5-hydroxytryptamine 1B receptor, measured using ring preparations of rabbit saphenous vein (RbSV)
[3] = test system: 5-hydroxytryptamine receptor 2A (Oryctolagus cuniculus); experiment: Binding affinity for 5-hydroxytryptamine 2A receptor of rabbit aorta ring preparations
[4] = molecular target: T1, 5-hydroxytryptamine receptor 1A (Rattus norvegicus, UniProt P19327); experiment: Binding affinity against 5-hydroxytryptamine 1A receptor in rat cortex homogenates.; assay type: tissue-based
T1 sequence (P19327 whole entry): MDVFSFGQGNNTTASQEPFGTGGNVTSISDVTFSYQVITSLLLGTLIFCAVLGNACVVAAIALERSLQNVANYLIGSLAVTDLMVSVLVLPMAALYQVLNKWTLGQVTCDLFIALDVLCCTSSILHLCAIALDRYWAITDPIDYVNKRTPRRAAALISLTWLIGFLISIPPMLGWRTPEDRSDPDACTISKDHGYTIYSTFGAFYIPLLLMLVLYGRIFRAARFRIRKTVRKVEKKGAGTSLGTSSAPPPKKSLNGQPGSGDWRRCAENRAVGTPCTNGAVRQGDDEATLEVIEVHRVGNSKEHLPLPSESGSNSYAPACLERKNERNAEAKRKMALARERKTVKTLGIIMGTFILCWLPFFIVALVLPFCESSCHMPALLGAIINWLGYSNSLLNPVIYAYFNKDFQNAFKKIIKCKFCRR

[5] = molecular target: T2, 5-hydroxytryptamine receptor 2C (Rattus norvegicus, UniProt P08909); experiment: Binding affinity against 5-hydroxytryptamine 2C receptor in rat cortex homogenates.; assay type: tissue-based
T2 sequence (P08909 whole entry): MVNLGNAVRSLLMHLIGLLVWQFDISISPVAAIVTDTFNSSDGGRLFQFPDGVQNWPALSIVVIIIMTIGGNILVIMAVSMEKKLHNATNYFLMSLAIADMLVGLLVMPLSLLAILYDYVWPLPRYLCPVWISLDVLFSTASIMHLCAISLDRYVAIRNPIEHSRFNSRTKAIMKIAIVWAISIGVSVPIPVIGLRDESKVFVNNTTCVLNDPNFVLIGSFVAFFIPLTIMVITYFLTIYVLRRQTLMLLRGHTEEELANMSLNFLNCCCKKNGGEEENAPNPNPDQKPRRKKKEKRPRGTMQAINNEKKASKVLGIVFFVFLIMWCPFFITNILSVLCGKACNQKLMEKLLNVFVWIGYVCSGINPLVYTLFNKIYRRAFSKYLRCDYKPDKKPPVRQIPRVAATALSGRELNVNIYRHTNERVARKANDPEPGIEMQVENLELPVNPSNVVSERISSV

[6] = test system: 5-hydroxytryptamine receptor 1B (Oryctolagus cuniculus); experiment: The vascular 5-hydroxytryptamine 1B receptor affinity was assessed using ring preparations of rabbit saphenous vein (RbSV).
[7] = test system: 5-hydroxytryptamine receptor 1B (Oryctolagus cuniculus); experiment: The vascular 5-hydroxytryptamine 1B receptor affinity was assessed using ring preparations of rabbit saphenous vein(RbSV).

| Compound | pKB [1] | pKB [2] | further results |
| --- | --- | --- | --- |
| CN(C)CCc1c(C(=O)NCc2ccccc2Cl)[nH]c2ccc(CCN3C(=O)NC(C)(C)C3=O)cc12 | 5.35 | 5.81 |  |
| CN(C)CCc1c(C(=O)N(C)Cc2ccccc2)[nH]c2ccc(CCN3C(=O)NC(C)(C)C3=O)cc12 | 5.8 | 5.8 | pKB [3]: 6.03 |
| CN(C)CCc1c(C(=O)NCCc2ccccc2)[nH]c2ccc(CCN3C(=O)NC(C)(C)C3=O)cc12 |  | 5.57 | pKB [3]: 5.35 |
| Cc1ccc(CNC(=O)c2[nH]c3ccc(CCN4C(=O)NC(C)(C)C4=O)cc3c2CCN(C)C)cc1 | 6 | 7 |  |
| CN(C)CCc1c(C(=O)NCc2cccc(N)c2)[nH]c2ccc(CCN3C(=O)NC(C)(C)C3=O)cc12 | 4.58 | 6.52 |  |
| CN(C)CCc1c(C(=O)N(C)C)[nH]c2ccc(CCN3C(=O)CNC3=O)cc12 |  | < 5 | pKB [3]: < 5 |
| CN(C)CCc1c(C(=O)NN)[nH]c2ccc(CCN3C(=O)NC(C)(C)C3=O)cc12 | < 4.5 | 5.48 |  |
| CON(C)C(=O)c1[nH]c2ccc(CCN3C(=O)CNC3=O)cc2c1CCN(C)C |  | 5.76 | pKB [3]: 5.3 |
| CN(C)CCc1c(C(=O)NCc2cccc(Cl)c2)[nH]c2ccc(CCN3C(=O)NC(C)(C)C3=O)cc12 |  | 6.45 |  |
| CC(=O)Nc1cccc(CNC(=O)c2[nH]c3ccc(CCN4C(=O)NC(C)(C)C4=O)cc3c2CCN(C)C)c1 | 4.5 | 5.68 |  |
| CCCCNC(=O)c1[nH]c2ccc(CCN3C(=O)CNC3=O)cc2c1CCN(C)C |  | 5.94 | pKB [3]: 5.2 |
| CN(C)CCc1c(C(=O)NCc2ccccc2N)[nH]c2ccc(CCN3C(=O)CNC3=O)cc12 | 5.73 | 6.67 |  |
| CN(C)CCc1c(C(=O)NCc2ccc(Cl)cc2)[nH]c2ccc(CCN3C(=O)CNC3=O)cc12 | 6.47 | 7.74 | pKB [3]: 6.31 |
| CN(C)CCc1c(C(=O)NCc2ccc(Cl)c(Cl)c2)[nH]c2ccc(CCN3C(=O)NC(C)(C)C3=O)cc12 | 5 | 6.5 |  |
| CN(C)CCc1c(C(=O)NCc2ccccc2N)[nH]c2ccc(CCN3C(=O)NC(C)(c4ccccc4)C3=O)cc12 (stereo unspecified) | 5.21 | 6.65 |  |
| CN(C)CCc1c(C(=O)NCc2ccccc2N)[nH]c2ccc(CCN3C(=O)NC(C)(C)C3=O)cc12 | 4.79 | 6.72 |  |
| CN(C)CCc1c(C(=O)NCc2ccccc2)[nH]c2ccc(CCN3C(=O)NC(C)(c4ccccc4)C3=O)cc12 (stereo unspecified) | 5.27 | 7.15 |  |
| CN(C)CCc1c(C(=O)NCc2ccccc2)[nH]c2ccc(CCN3C(=O)CNC3=O)cc12 | 5.77 | 7.36 | Ki [4]: 67.6 µM; Ki [5]: 1.91 µM; pKB [3]: 6.09 |
| CN(C)CCc1c(C(=O)NCc2ccc(Cl)cc2)[nH]c2ccc(CCN3C(=O)NC(C)(C)C3=O)cc12 | 5.86 | 7.59 |  |
| CC(NC(=O)c1[nH]c2ccc(CCN3C(=O)NC(C)(C)C3=O)cc2c1CCN(C)C)c1ccccc1 (stereo unspecified) | 4.65 | 5.5 | pKB [3]: 5.59 |
| COc1cccc(CNC(=O)c2[nH]c3ccc(CCN4C(=O)NC(C)(C)C4=O)cc3c2CCN(C)C)c1 | 5.17 | 6.47 |  |
| CN(C)CCc1c(C(=O)NCc2cccc(NS(C)(=O)=O)c2)[nH]c2ccc(CCN3C(=O)NC(C)(C)C3=O)cc12 | 4.51 | 5.67 |  |
| CN(C)CCc1c(C(=O)NCc2ccccc2N)[nH]c2ccc(CCN3C(=O)N(C)C(C)(c4ccccc4)C3=O)cc12 (stereo unspecified) | 4.78 | 6.64 |  |
| CN(C)CCc1c(C(=O)NCc2cccc3ccccc23)[nH]c2ccc(CCN3C(=O)NC(C)(C)C3=O)cc12 |  | 5.5 |  |

| Compound | pKB [1] | pKB [2] | further results |
| --- | --- | --- | --- |
| CN(C)CCc1c(C(=O)NCc2ccc(C(F)(F)F)cc2)[nH]c2ccc(CCN3C(=O)NC(C)(C)C3=O)cc12 | < 5 | 6.2 |  |
| CN(C)CCc1c(C(=O)NCc2ccccc2O)[nH]c2ccc(CCN3C(=O)NC(C)(C)C3=O)cc12 | 5 | 6.61 |  |
| CN(C)CCc1c(C(=O)NCc2ccccc2)[nH]c2ccc(CCN3C(=O)C4CCCN4C3=O)cc12 (stereo unspecified) | 5.31 | 6.66 |  |
| CN(C)CCc1c(C(=O)NCc2ccc(-c3ccccc3)cc2)[nH]c2ccc(CCN3C(=O)NC(C)(C)C3=O)cc12 | 5 | 5.77 |  |
| CN(C)CCc1c(C(=O)NCc2ccc(S(C)(=O)=O)cc2)[nH]c2ccc(CCN3C(=O)NC(C)(C)C3=O)cc12 | 4.52 | 5.91 |  |
| CN(C)CCc1c(C(=O)NCc2ccccc2N)[nH]c2ccc(CCN3C(=O)NC(c4ccccc4)(c4ccccc4)C3=O)cc12 | 5.43 | 6.31 |  |
| CN(C)CCc1c(C(=O)NCc2ccc(N)cc2)[nH]c2ccc(CCN3C(=O)NC(C)(C)C3=O)cc12 | 4.52 | 6.19 |  |
| CN(C)CCc1c(C(=O)NCc2ccccc2)[nH]c2ccc(CCN3C(=O)NC4(CCCC4)C3=O)cc12 | 5.48 | 7.2 |  |
| CN(C)CCc1c(C(=O)NCC(N)=O)[nH]c2ccc(CCN3C(=O)NC(C)(C)C3=O)cc12 |  | < 5 |  |
| CN(C)CCc1c(C(=O)NCc2ccccc2)[nH]c2ccc(CCN3C(=O)NC(c4ccccc4)(c4ccccc4)C3=O)cc12 | 5 | 6.44 |  |
| CONC(=O)c1[nH]c2ccc(CCN3C(=O)NC(C)(C)C3=O)cc2c1CCN(C)C | < 4.5 | 5.4 |  |
| CN(C)CCc1c(C(=O)NCc2ccc(NS(C)(=O)=O)cc2)[nH]c2ccc(CCN3C(=O)NC(C)(C)C3=O)cc12 | < 4.5 | 5.65 |  |
| CCOC(=O)c1[nH]c2ccc(CCN3C(=O)CNC3=O)cc2c1CCN(C)C | 5.43 | 7.42 | pKB [3]: < 5 |
| CN(C)CCc1c(C(=O)NCc2ccc(F)cc2)[nH]c2ccc(CCN3C(=O)NC(C)(C)C3=O)cc12 | 5.46 | 7.3 |  |
| CN(C)CCc1c(C(N)=O)[nH]c2ccc(CCN3C(=O)CNC3=O)cc12 |  | < 5 | pKB [3]: < 5 |
| CN(C)CCc1c(C(=O)NCc2ccccc2)[nH]c2ccc(CCN3C(=O)NC(C)(C)C3=O)cc12 | 5.2 | 7.09 | Ki [4]: 14.8 µM; Ki [5]: 2.19 µM; pKB [3]: 5.6 |
| C#CCNC(=O)c1[nH]c2ccc(CCN3C(=O)NC(C)(C)C3=O)cc2c1CCN(C)C | 4.62 | 5.44 |  |
| CN(C)CCc1c(C(=O)Nc2ccccc2)[nH]c2ccc(CCN3C(=O)NC(C)(C)C3=O)cc12 | 4.86 | 5.21 |  |
| CN(C)CCc1c(C(=O)NCc2ccccc2)[nH]c2ccc(CCN3C(=O)N(C)C(C)(c4ccccc4)C3=O)cc12 (stereo unspecified) | 5.5 | 7.19 |  |
| CNC(=O)c1[nH]c2ccc(CCN3C(=O)CNC3=O)cc2c1CCN(C)C |  | 5.94 | pKB [3]: < 5 |
| CCCCNC(=O)c1[nH]c2ccc(CCN3C(=O)NC(C)(C)C3=O)cc2c1CCN(C)C |  | 5.47 | pKB [3]: < 5 |
| CC(=O)Nc1ccccc1CNC(=O)c1[nH]c2ccc(CCN3C(=O)NC(C)(C)C3=O)cc2c1CCN(C)C | < 5 |  | pKB [6]: 6.04 |
| COc1ccc(CNC(=O)c2[nH]c3ccc(CCN4C(=O)NC(C)(C)C4=O)cc3c2CCN(C)C)cc1 | 4.73 |  | pKB [7]: 6.54 |
